Laboratory results as given in paper PMC8234803, “In Vitro Metabolism of Six C-Glycosidic Flavonoids from Passiflora incarnata L” (International Journal of Molecular Sciences, 2021).
“Also recorded” adds a separate entry of the source.

Assays:
[1] = Stability testing in test buffer (HBSS pH 6.0) under assay conditions, HPLC-DAD; assay type: physicochemical; conditions: 10 µM in HBSS pH 6.0, 37 °C, 5% CO2
Procedure: To guarantee the stability of all test substances during the metabolism assay on Caco-2 cells, they were incubated in the test buffer under assay conditions. Test samples were collected each hour for 5 h and were measured via HPLC-DAD.
To ensure stability during the Caco-2 metabolism experiments, all test substances were dissolved in DMSO to a concentration of 20 mM and diluted to 10 µM in an appropriate volume of HBSS (pH 6.0), resulting in a DMSO concentration of less than 1%. The test solution (1 mL) was aliquoted into a 12-well Transwell® plate and incubated for 5 h in an atmosphere of 5% CO2 and 90% relative humidity at 37 °C. Test samples (100 µL) were collected after t = 0, 1, 2, 3, 4, and 5 h and measured via HPLC-DAD. The peak area of the test substance at time t = 0 h was defined as 100%, and all other peak areas were related to calculate the proportional stability. The stability was calculated as % = area/area0 × 100. Stability testing was performed on three independent days with freshly prepared solutions (n = 3).
The system consisted of the following: Elite LaChrom with an L2200 autosampler, L2130 pump, L2350 column oven, L2444 DAD, and EZChrom Elite 3.1.7 software (Hitachi, Tokyo, Japan); column: Kinetex® Biphenyl, 100 Å, 250-4.6 mm (5 µm, same material precolumn; Phenomenex, Torrance, CA, USA); injection volume 30 µL; oven temp.: 25 °C; autosampler temp.: 10 °C; detection wavelength: 340 nm; flow: 1.2 mL/min; A = H2O + 0.1% TFA, B = acetonitrile + 0.1% TFA; gradient: 0–2 min 10% B, 2–10 min 10% B → 100% B, 10–11 min 100% B → 10% B, 11–15 min 10% B.

[2] = MTT assay under metabolic conditions (cell viability); assay type: cell-based, human; conditions: human, 5 h incubation, read-out: Viability of Caco-2 cells; for viability at 5 h, 10 µM: Caco-2, 10 µM in HBSS (pH 6.0); for viability at 5 h, 100 µM: Caco-2, 100 µM in HBSS (pH 6.0)
Procedure: (§1) All six substances were tested in five different dilutions in HBSS (pH 6.0). The determined viability values of O, IO, S, IS, V, and IV are listed in the Supplementary Materials (Figure S2).
(§2) Caco-2 cells in the logarithmic growth phase were seeded in 96-well plates at a density of 3 × 10^4 cells/well and incubated at 37 °C in an atmosphere of 5% CO2 and constant moisture in an incubator. After 24 h, the cell culture medium was removed, and 100 µL of HBSS solution (negative control), 0.5% DMSO in HBSS solution (solvent control), or flavonoid samples in HBSS solution (6 flavonoids at concentrations of 10, 25, 50, 75, and 100 µM) was applied in quintuplicate and incubated for 5 h. Afterwards, the HBSS solutions were removed and replaced with an MTT solution in DMEM (0.4 mg/mL) and incubated for another 3 h at 37 °C. Then, the MTT solution was discarded, and the cells were fixed with a 10% SDS solution in PBS and stored at room temperature in the dark. After 24 h, the absorbance was measured on a Tecan microplate reader (Tecan Trading AG, Switzerland) at 560 nm. The viability rate was calculated as % = A/A0 × 100, with A as the average absorbance value of the treatment and solvent control groups and A0 as the average absorbance value of the negative control group. The assay was performed three times in pentaplicate.
(§3) The human colon adenocarcinoma cell line Caco-2 was obtained from the ATCC (American Type Culture Collection, Manassas, VA, USA). The cell line was determined to be free of mycoplasma contamination by PCR and culture from GATC Biotech AG (Konstanz, Germany). The cells were cultured in DMEM supplemented with 10% (v/v) FBS, 1% (v/v) NEAA, and 1% (v/v) antibiotics (penicillin/streptomycin) in an atmosphere of 5% CO2 and 90% relative humidity at 37 °C. The culture medium was replaced every 3 days, and the cells were split 1:5 using trypsin-EDTA once 90% confluence was obtained.

[3] = test system: Caco-2 cells; assay: as above; assay type: cell-based, human; conditions: 10, 25, 50, 75, 100 µM in HBSS (pH 6.0), 5 h incubation
Procedure: as §1, §2, §3

[4] = test system: Caco-2 cell monolayer; assay: Caco-2 monolayer metabolism experiment, metabolites identified via UHPLC-DAD-MS(/MS); assay type: in vitro ADME, human; conditions: for Extent of metabolism (in words) / Phase II conjugates containing glucuronic acid or sulfates / Phase II metabolites with glucuronic acid or sulfates: 3 and 5 h; for Extent of phase I and II metabolism (in words): independent of incubation time and concentration
Procedure: To obtain information on the in vitro metabolism of the six tested C-glycosidic flavonoids in the intestine, experiments were carried out using the Caco-2 monolayer model (Figure 2). Metabolite profiles were characterized at two different concentrations (10 and 100 µM; n = 3) and after two different incubation times (3 or 5 h; n = 3) in order to determine the influence of concentration and time on the metabolism reactions that occurred. Furthermore, to analyze the distribution of the observed metabolites, samples were collected from the cell lysate and the apical and basolateral compartments. All samples of the metabolism experiments using the Caco-2 cell monolayer were analyzed using UHPLC-DAD-MS and UHPLC-DAD-MS/MS. Metabolites were identified by libraries that were prepared for each compound (Tables S1–S6). The O and IO libraries contained 67 metabolites (Tables S1 and S2), the S and IS libraries contained 106 metabolites (Tables S3 and S4), and the V and IV libraries contained 71 possible metabolites (Tables S5 and S6).
To form a confluent and differentiated monolayer, cells at passages 16–45 were seeded into the inserts of 12-well Transwell® plates at a density of 3.0 × 10^5 cells/cm^2. Afterwards, the culture medium was replaced every day, and the metabolism experiment was performed 21 days after seeding. The apical and basolateral compartments contained 0.5 and 1.5 mL of cell culture medium, respectively.
On day 21, the cell culture medium was removed from the apical and basolateral compartments, and the Caco-2 cell monolayer was washed two times with prewarmed HBSS. The Transwell® plates containing HBSS were incubated at 37 °C for 15 min to measure the transepithelial electrical resistance (TEER) value. The integrity of the cell monolayers was evaluated by TEER values between the apical and basolateral sides with the Evohm2 system (World Precision Instruments, Sarasota, FL, USA). The cell inserts were only used for the metabolism experiments if the resistance exceeded 350 Ω/cm^2. The six test substances were dissolved in DMSO to a stock solution of 20 mM. The HBSS was adjusted to pH 6.0 and 7.4 with 1 M HCl. Afterwards, the stock solutions were diluted to 10 or 100 µM in an appropriate volume of HBSS (pH 6.0) to obtain a DMSO concentration of <1%. The test solutions were added to the apical side (0.5 mL), while the basolateral side was filled with 1.5 mL of HBSS (pH 7.4). The Transwell® plates were incubated at 37 °C for 3 or 5 h, respectively. After this period, solutions from the apical and basolateral compartments were collected in separate tubes, washed twice with 500 µL of HBSS, and then collected again. The samples were lyophilized and stored at −20 °C until they were measured using UHPLC-DAD-MS. After the experiment, Transwell® inserts were apically (0.5 mL) and basolaterally (1.5 mL) filled with HBSS and warmed to 37 °C for 20 min. Then, the TEER values were measured to guarantee the integrity of the monolayer during the experiment. The experiment was performed in triplicate for each substance, concentration, and incubation time.
After the metabolism experiment, cell monolayers were washed twice with PBS and incubated with 200 µL of trypsin-EDTA for 10 min at 37 °C in an atmosphere of 5% CO2 and constant humidity in the incubator. The cells were removed from the well by pipetting up and down, and were collected in a tube. The well was washed twice with PBS (1 mL), and the wash solution was also collected in the corresponding tube. The mixture was centrifuged (1000× g rpm, 5 min), and the supernatant was discarded.

[5] = initial concentration 10 µM, 3 h, apical compartment
[6] = initial concentration 10 µM, 5 h, apical compartment
[7] = initial concentration 100 µM, 3 h, apical compartment
[8] = initial concentration 100 µM, 3 h, basolateral compartment
[9] = initial concentration 100 µM, 5 h, apical compartment

Stability (content relative to t = 0 h) ([1]; after 3 h of incubation) | Stability (content relative to t = 0 h) ([1]; after 5 h incubation) | Possible metabolite (phase II metabolite identified by MS/MS fragmentation and comparison with reference compound after enzymatic hydrolysis) ([4]; glucuronidase/sulfatase cleavage, UHPLC-DAD-MS/MS) | Possible metabolite detected [4, 8] | Compound | viability at 5 h, 10 µM [2] | viability at 5 h, 100 µM [2] | Effect on the viability of Caco-2 cells (in words) [3] | Extent of metabolism (in words) ([4]; 10 µM) | Metabolites of the aglycones (cleavage of the C–C glycosidic bond) ([4]; 100 µM approach) | Extent of metabolism (in words) ([4]; 100 µM) | Extent of phase I and II metabolism (in words) [4] | Possible metabolite detected [4, 5] | Possible metabolite detected [4, 6] | Possible metabolite detected [4, 7] | Possible metabolite detected [4, 9] | Phase II conjugates containing glucuronic acid or sulfates ([4]; 10 µM) | Phase II metabolites with glucuronic acid or sulfates ([4]; 100 µM)
96% | 95% | Methoxy-luteolin-sulfate | Hydroxy-dimethoxy-isovitexin | O=c1cc(-c2ccc(O)cc2)oc2cc(O)c([C@@H]3O[C@H](CO)[C@@H](O)[C@H](O)[C@H]3O)c(O)c12 [IV, isovitexin] | 92% | 82% | slight, concentration-dependent reductions | broader ranges of phase I and II metabolites | metabolites of the corresponding aglycones apigenin and luteolin were also detected | extensive metabolism | highly metabolized in phase I and II reactions | Hydroxy-methoxy-isovitexin; also recorded: Hydroxy-apigenin-sulfate; also recorded: Hydroxy-methoxy-apigenin | Hydroxy-methoxy-isovitexin; also recorded: Hydroxy-dimethoxy-isovitexin; also recorded: Hydroxy-apigenin-sulfate | Hydroxy-apigenin-sulfate; also recorded: Hydroxy-dimethoxy-isovitexin; also recorded: Hydroxy-methoxy-apigenin; also recorded: Hydroxy-methoxy-isovitexin | Hydroxy-methoxy-isovitexin; also recorded: Hydroxy-apigenin-sulfate; also recorded: Hydroxy-dimethoxy-isovitexin; also recorded: Hydroxy-methoxy-apigenin |  | 
approximately 100% |  |  | Hydroxy-methoxy-schaftoside | schaftoside |  |  | no significant effects at any concentration | very limited metabolism |  | a few hydroxylated and methoxylated derivatives | poorly metabolized in phase I and II reactions | Hydroxy-methoxy-schaftoside | Hydroxy-methoxy-schaftoside | Hydroxy-methoxy-schaftoside | Hydroxy-methoxy-schaftoside | No phase II conjugates containing glucuronic acid or sulfates were detectable | lacked the presence of phase II metabolites with glucuronic acid or sulfates

Compound | Stability (content relative to t = 0 h) ([1]; after 3 h of incubation) | Stability (content relative to t = 0 h) ([1]; after 5 h incubation) | Possible metabolite (phase II metabolite identified by MS/MS fragmentation and comparison with reference compound after enzymatic hydrolysis) ([4]; glucuronidase/sulfatase cleavage, UHPLC-DAD-MS/MS) | Possible metabolite detected [4, 8] | viability at 5 h, 10 µM [2] | viability at 5 h, 100 µM [2] | Effect on the viability of Caco-2 cells (in words) [3] | Extent of metabolism (in words) ([4]; 10 µM) | Metabolites of the aglycones (cleavage of the C–C glycosidic bond) ([4]; 100 µM approach) | Extent of metabolism (in words) ([4]; 100 µM) | Extent of phase I and II metabolism (in words) [4] | Possible metabolite detected [4, 5] | Possible metabolite detected [4, 6] | Possible metabolite detected [4, 7] | Possible metabolite detected [4, 9] | Phase II conjugates containing glucuronic acid or sulfates ([4]; 10 µM) | Phase II metabolites with glucuronic acid or sulfates ([4]; 100 µM)
O=c1cc(-c2ccc(O)cc2)oc2c([C@@H]3O[C@H](CO)[C@@H](O)[C@H](O)[C@H]3O)c(O)cc(O)c12 [V, vitexin] | approximately 100% |  |  | Hydroxy-methoxy-vitexin | 92% | 83% | slight, concentration-dependent reductions | very limited metabolism |  | a few hydroxylated and methoxylated derivatives | poorly metabolized in phase I and II reactions |  |  | Hydroxy-methoxy-vitexin | Hydroxy-vitexin | No phase II conjugates containing glucuronic acid or sulfates were detectable | lacked the presence of phase II metabolites with glucuronic acid or sulfates
